Source: patent US20240043860A1, “NOVEL HYDROXYPHENYLPYRUVATE DIOXYGENASE POLYPEPTIDES AND METHODS OF USE THEREOF” (Syngenta Crop Protection AG, priority 2020, published 2024)
“And” between values parts separate entries of the source, which are not always exact repeats. Equal entries are not always repeated.

Assays:
[1] = test system: transgenic tobacco plants expressing mutant HPPD SEQ ID NO: 125; assay: spray test, herbicidal damage scoring; format: in vivo
[2] = test system: HPPD variant APESV V208 (SEQ ID NO: 15); assay: coupled HGO assay; format: biochemical, Apera spica-venti
Experimental: (§1) DNA sequences (SEQ ID NOs: 65-118, 128, 130, 131, and 133), synthesized for expression in E. coli, by GeneWiz (USA) to encode HPPD variants (SEQ ID NOs: 5-58, 122, 124, 125 and 127) derived from either Avena sativa (SEQ ID NOs: 122, 124), Alopecurus myosuroides (SEQ ID NO: 126) or Apera spica-venti (SEQ ID NOs: 123, 125) were transformed into E coli BL21 (DE3) (New England Biolabs) and grown in 0.5 ml Terrific broth +50 ug/ml Kanamycin media in a 96-deepwell block overnight (37° C., 900rpm). 25 ul of the overnight cultures were inoculated into fresh 96-deepwell block containing 1 ml Formedium Autoinduction Media (AIM). The AIM cultures were grown for 3h at 37° C. (900rpm) and then transferred to 20° C. overnight (900rpm) to allow protein expression. The overnight cultures were centrifuged and 500 ul of Cellytic B (Sigma Aldrich) was added to resuspend the cell pellets. The coupled HGO assay (Siehl et al, 2014) is used to generate IC50 values for the HPPD variants of interest.
(§2) E. coli BL21 (DE3) cells were transformed with a pET24a vector containing a C-terminally his-tagged Arabidopsis HGO gene, grown and induced overnight as described for the HPPD variants above. The cell pellet was resuspended in phosphate buffered saline at pH 7.4 containing 10% Glycerol, 1mm Tris[2-carboxyethyl] phosphine-HCl (TCEP) plus 30 mM Imidazole and lysed using lysozyme/benzonase. The extract was clarified by low speed centrifugation and purified in the same buffer down a 1 ml His Gravitrap column. The bound HGO was eluted in 0.25M imidazole and the fractions pooled and beaded into liquid nitrogen. All procedures apart from the centrifugation and beading steps were carried out under a nitrogen atmosphere.
(§3) The coupled HGO assay is carried out by adding 10 ul of HPPD extract to a 96-well plate and then adding 40 ul of reaction buffer (50 mM Bis Tris Propane, pH7.0, 25 mM sodium-L-ascorbate, 400μM mercaptoethanol, 50 μM Fe(II)SO4). The plates are left to incubate for 5 minutes on ice. […] 200 ul of HPP/HGO (197 μM hydroxyphenylpyruvic acid, 16 μl/ml Homogentisic Acid Oxidase in reaction buffer as described above) buffer is then added to the well and the reaction is regularly monitored (e.g. every 30 seconds-5 minutes) for absorbance at 330 nm for a given time period (e.g., for between 15-60 minutes). The data can then be used to calculate the IC50 value for each HPPD variant of interest.

[3] = test system: HPPD variant APESV V200 (SEQ ID NO: 6); assay: coupled HGO assay; format: biochemical, Apera spica-venti
Experimental: as §1, §2, §3

[4] = test system: HPPD variant APESV V209 (SEQ ID NO: 18); assay: coupled HGO assay; format: biochemical, Apera spica-venti
Experimental: as §1, §2, §3

[5] = test system: HPPD variant ALOME V209 (SEQ ID NO: 19); assay: coupled HGO assay; format: biochemical, Alopecurus myosuroides
Experimental: as §1, §2, §3

[6] = test system: HPPD variant ALOME V200 (SEQ ID NO: 7); assay: coupled HGO assay; format: biochemical, Alopecurus myosuroides
Experimental: as §1, §2, §3

For `COc1ccc(-n2nc(C)cc(C(=O)C3C(=O)CCCC3=O)c2=O)cc1OC` [Herbicide C, dioxopyritrione], the tolerance ([1]; SEQ ID 125 plants, 100 g/ha (Table 3.4)) was “display tolerance” and the “herbicidal damage scoring, Herbicide C (200 g/ha)” value ([1]; Table 3.4, 14 days after treatment, SEQ ID 125, 100=complete death, 0=no damage, one value per event) was 60 and 80 and 75 and 85.
bicyclopyrone showed an IC50 [2] of 1 µM.
With `Cn1nnnc1NC(=O)c1ccc(C(F)(F)F)nc1-n1cncn1` [Herbicide D, N-(1-methyltetrazol-5-yl)-2-(1,2,4-triazol-1-yl)-6-(trifluoromethyl)pyridine-3-carboxamide] the IC50 [3] was 85.9 µM, the IC50 [4] was 95 µM and the IC50 [5] was 96.9 µM. For the same molecule, the IC50 [6] was 77.8 µM.
